Patent US7776882B2, “2-amino-3,4-dihydro-quinoline derivatives useful as inhibitors of β-secretase (BACE)” (priority 2006, dated 2010)

Legend:
human BACE-1 = biological target: T1, human BACE-1 (Homo sapiens, UniProt P56817); assay: In Vitro BACE Assay run by CEREP (Example 14); assay type: biochemical; conditions: recombinant enzyme, 60 min at 37° C., pH 4.5; for inhibition at 0.3 µM: 0.3 μM compound; for inhibition at 1 µM / % Inhibition 1 μM: 1 μM compound
T1 construct: purchased CEREP (contract assay) 761-B
Experimental: This assay was run by CEREP (Catalog Ref. 761-B, Referred to SOP No. 1C131; ERMOLIEFF, J., LOY, J. A., KOELSCH, G. and TANG, J., Proteolytic activation of recombinant pro-memapsin 2 (pro-BACE) studied with new fluorogenic substrates, Biochemistry, (2000) Vol. 39, p. 12450).
More specifically the assay, run at 50 μL in a 96 well plate, evaluated the effect of test compound on the activity of the human BACE-1 quantified by measuring the formation of Mca-S-E-V-N-L-NH2 from Mca-S-E-V-N-L-D-A-E-F-R-K(Dnp)-R-R-NH2, using a recombinant enzyme.
The test compound, reference compound or water (control) was added to a buffer containing 0.09 M sodium acetate (pH 4.5) and 0.25 μg BACE-1. Compound interference with the fluorimetric detection method due to autofluorescence was then checked by measurements at the wavelengths defined to evaluate the enzyme activity. Thereafter, the reaction was initiated by adding 7.5 μM of the substrate Mca-S-E-V-N-L-D-A-E-F-R-K(Dnp)-R-R-NH2 and the mixture was incubated for 60 min at 37° C. For control basal measurement, the substrate was omitted from the reaction mixture. Immediately after the incubation, the fluorescence intensity emitted by the reaction product Mca-S-E-V-N-L-NH2 was measured at λex=320 nm and λem=405 nm using a microplate reader (Ultra, Tecan). The standard inhibitory reference compound was OM99-2, which was tested in each experiment at several concentrations to obtain an inhibition curve from which its IC50 value was calculated.

β-secretase (BACE) = biological target: T2, β-secretase (BACE) (Homo sapiens, UniProt P56817); assay: In Vitro BACE FS1 % Inhibition Assay (Example 10); assay type: biochemical; conditions: FS1 substrate, values below about 25% (including negative) within noise; for % Inhibition (Example 10) @ 0.3 μM: 0.3 μM compound; for % Inhibition (Example 10) @ 1 μM: 1 μM compound; for % Inhibition (Example 10) @ 3 μM: 3 μM compound
T2 construct: purchased Panvera
Experimental: The following assay buffers were prepared and used in this assay: (1) enzyme assay buffer (0.05 M sodium acetate, pH5, 0.1% PEG8000 (w/v)), (2) substrate assay buffer (0.05 M sodium acetate, pH5), and (3) compound vehicle (30% DMSO in 50 mM HEPES, pH 7.4).
The FS1-substrate stock solution was prepared in DMSO as a 10 mg/mL solution. The FS1-substrate working solution was prepared by diluting the 10 mg/mL stock solution with substrate assay buffer to a final concentration of 300 μg/mL. The β-secretase (BACE) working solution was prepared by diluting a 0.83 mg/mL BACE stock solution with enzyme assay buffer to a final concentration of 4 μg/mL.
Test compounds were dissolved in DMSO to 10 mM. Compounds were further diluted in vehicle to various concentrations in the range of 405 μM to 4.05 μM (13.5×final compound concentration in screening plate).
The screening procedure for this assay was as follows: 15 μL of BACE working solution was pipetted into each well of a 96-well plate. To each well was then pipetted 2 μL of test compound at the selected concentration. Test compound and BACE were then mixed with a pipettor and incubated for 20 min at room temperature. To each well was then added 10 μL of the FS1 substrate working solution. The plates were then incubated for 1 hour at room temperature. The fluorescence for each well was then measured on an LJL analyst (Ex 360 nm/Em 530 nm).
The procedure for the blank (negative control) was as follows. 15 μL of assay buffer was pipetted into each well to be used as a blank control. To each well was then added 2 μL of vehicle and 10 μL of FS1-substrate working solution. The plates were then incubated for 1 hour at room temperature. The fluorescence was measured on an LJL analyst (Ex 360 nm/Em 530 nm).
The procedure for the positive control was as follows: 15 μL of BACE working solution was pipetted into each well to be used as a positive control. To each well was then pipetted 2 μL of vehicle. Vehicle and BACE were then mixed with a pipettor and incubated for 20 min at room temperature. To each well was then added 10 μL of the FS1 substrate working solution. The plates were then incubated for 1 hour at room temperature. The fluorescence (Fl) was then measured on an LJL analyst (Ex 360 nm/Em 530 nm).
For test compounds, % inhibition was determined at each concentration as follows: […]

T1 sequence (P56817 46-501): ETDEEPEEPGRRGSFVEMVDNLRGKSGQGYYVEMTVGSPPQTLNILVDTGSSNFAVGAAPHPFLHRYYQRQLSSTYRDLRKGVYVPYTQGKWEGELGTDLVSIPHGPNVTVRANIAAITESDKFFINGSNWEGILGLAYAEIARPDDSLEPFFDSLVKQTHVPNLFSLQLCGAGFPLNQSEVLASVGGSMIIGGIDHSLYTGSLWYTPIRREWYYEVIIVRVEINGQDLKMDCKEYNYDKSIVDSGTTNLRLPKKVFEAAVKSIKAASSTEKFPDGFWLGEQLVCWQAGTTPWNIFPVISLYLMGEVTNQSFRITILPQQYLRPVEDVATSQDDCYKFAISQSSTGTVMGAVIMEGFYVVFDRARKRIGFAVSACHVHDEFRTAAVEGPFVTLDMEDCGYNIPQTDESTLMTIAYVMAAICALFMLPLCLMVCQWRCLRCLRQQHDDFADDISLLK
T2 sequence (P56817 46-501): as above

## Nc1nc2ccc(Oc3ccccc3)cc2cc1C(CCC(=O)NCC1CC1)C1CCOCC1 (centres unmarked) [compound 36]
Human BACE-1
  inhibition at 0.3 µM: 49%
  inhibition at 1 µM: 59%
  IC50: 610 nM

## Nc1nc2ccc(Oc3ccccc3)cc2cc1CCNC(=O)C1CCCCC1 [compound 4]
β-secretase (BACE)
  % Inhibition (Example 10) @ 0.3 μM: 14%
  % Inhibition (Example 10) @ 1 μM: 9%
  % Inhibition (Example 10) @ 3 μM: 42%

## Nc1nc2ccc(Oc3ccccc3)cc2cc1CCCC(=O)NC12CC3CC(CC(C3)C1)C2 [compound 17]
β-secretase (BACE)
  % Inhibition (Example 10) @ 0.3 μM: 19%
  % Inhibition (Example 10) @ 1 μM: 20%
  % Inhibition (Example 10) @ 3 μM: 46%

## Cn1ccnc1CN(C(=O)CCC(c1cc2cc(Oc3ccccc3)ccc2nc1N)C1CCCCC1)C1CCCCC1 (centres unmarked) [compound 39]
Human BACE-1
  inhibition at 0.3 µM: 16%
  IC50: 490 nM

## CCN(CC)CCNC(=O)CCc1cc2cc(Oc3ccccc3)ccc2nc1N [compound 10]
β-secretase (BACE)
  % Inhibition (Example 10) @ 0.3 μM: −11%
  % Inhibition (Example 10) @ 1 μM: −13%
  % Inhibition (Example 10) @ 3 μM: −0.3%

## Nc1nc2ccc(Oc3ccccc3)cc2cc1C(CCC(=O)NC1CN2CCC1CC2)C1CCOCC1 (centres unmarked) [compound 51]
Human BACE-1
  inhibition at 1 µM: 56%
  IC50: 1200 nM

## CC(C)(C)OCCN(C(=O)CCC(c1cc2cc(Oc3ccccc3)ccc2nc1N)C1CCOCC1)C1CCCCC1 (centres unmarked) [compound 66]
Human BACE-1
  inhibition at 1 µM: 86%
  IC50: 470 nM

## COC(=O)[C@H]1CC[C@H](NC(=O)CCC(c2cc3cc(Oc4ccccc4)ccc3nc2N)C2CCCCC2)CC1 (some centres unmarked) [compound 20]
β-secretase (BACE)
  % Inhibition (Example 10) @ 0.3 μM: −8%
  % Inhibition (Example 10) @ 1 μM: −11%
  % Inhibition (Example 10) @ 3 μM: 34%

## Nc1nc2ccc(Oc3ccccc3)cc2cc1C(CCC(=O)N(Cc1ncc[nH]1)C1CCCCC1)C1CCOCC1 (centres unmarked) [compound 30]
Human BACE-1
  inhibition at 1 µM: 91%
  IC50: 410 nM

## Nc1nc2ccc(Oc3ccccc3)cc2cc1C(CCC(=O)N(CC1CC1)C1CCCCC1)C1CCOCC1 (centres unmarked) [compound 67]
Human BACE-1
  inhibition at 1 µM: 90%
  IC50: 410 nM

## Cc1ccccc1N1CCN(C(=O)CCc2cc3cc(Oc4ccccc4)ccc3nc2N)CC1 [compound 75]
β-secretase (BACE)
  % Inhibition (Example 10) @ 0.3 μM: 24%
  % Inhibition (Example 10) @ 1 μM: −8%
  % Inhibition (Example 10) @ 3 μM: 17%

## COC(=O)CCCc1cc2cc(Oc3ccccc3)ccc2nc1N [compound 504]
β-secretase (BACE)
  % Inhibition (Example 10) @ 0.3 μM: 21%
  % Inhibition (Example 10) @ 1 μM: 21%
  % Inhibition (Example 10) @ 3 μM: 18%

## CN(CCC(c1cc2cc(Oc3ccccc3)ccc2nc1N)C1CCCCC1)C1CCCCC1 (centres unmarked) [compound 61]
Human BACE-1
  % Inhibition 1 μM: 15%

## CC(C)(C)CN(Cc1ccccn1)C(=O)CCC(c1cc2cc(Oc3ccccc3)ccc2nc1N)C1CCOCC1 (centres unmarked) [compound 69]
Human BACE-1
  inhibition at 1 µM: 69%
  IC50: 670 nM

## COCCNC(=O)CCc1cc2cc(Oc3ccccc3)ccc2nc1N [compound 5]
β-secretase (BACE)
  % Inhibition (Example 10) @ 0.3 μM: 22%
  % Inhibition (Example 10) @ 1 μM: 41%
  % Inhibition (Example 10) @ 3 μM: 37%

## Nc1nc2ccc(Oc3ccccc3)cc2cc1C(CCC(=O)N(CCO)C1CCCCC1)C1CCCCC1 (centres unmarked) [compound 42]
Human BACE-1
  inhibition at 1 µM: 58%
  IC50: 810 nM

## Nc1nc2ccc(Oc3ccccc3)cc2cc1C(CCC(=O)NCc1nnnn1Cc1ccccc1)C1CCOCC1 (centres unmarked) [compound 31]
Human BACE-1
  inhibition at 0.3 µM: 32%
  inhibition at 1 µM: 59%
  IC50: 740 nM

## Cn1ccnc1CN(CCC(C)(C)C)C(=O)CCC(c1cc2cc(Oc3ccccc3)ccc2nc1N)C1CCCCC1 (centres unmarked) [compound 70]
Human BACE-1; 1 µM
  % Inhibition 1 μM: 10%

## Nc1nc2ccc(Oc3ccccc3)cc2cc1C(CCC(=O)N(Cc1ccccn1)C1CCCCC1)C1CCOCC1 (centres unmarked) [compound 60]
Human BACE-1
  inhibition at 1 µM: 83%
  IC50: 320 nM

## Nc1nc2ccc(Oc3ccccc3)cc2cc1C(CCC(=O)N(CN1CCCC1)C1CCCCC1)C1CCOCC1 (centres unmarked) [compound 64]
Human BACE-1
  inhibition at 1 µM: 83%
  IC50: 190 nM

## Nc1nc2ccc(Oc3ccccc3)cc2cc1CCC(=O)N1CCN(c2cccc(F)c2)CC1 [compound 76]
β-secretase (BACE)
  % Inhibition (Example 10) @ 0.3 μM: 28%
  % Inhibition (Example 10) @ 3 μM: 16%

## Cn1ccnc1CN(C(=O)CCC(c1cc2cc(Oc3ccccc3)ccc2nc1N)C1CCOCC1)C1CCCCC1 (centres unmarked) [compound 54]
Human BACE-1
  inhibition at 1 µM: 85%
  IC50: 450 nM

## Nc1nc2ccc(Oc3ccccc3)cc2cc1C(CCC(=O)N(CCO)CC1CC1)C1CCOCC1 (centres unmarked) [compound 68]
Human BACE-1
  inhibition at 1 µM: 41%
  IC50: 1500 nM

## Nc1nc2ccc(Oc3ccccc3)cc2cc1CCC(=O)N[C@H](CO)CC1CCCCC1 [compound 14]
β-secretase (BACE)
  % Inhibition (Example 10) @ 0.3 μM: −14%
  % Inhibition (Example 10) @ 1 μM: −27%
  % Inhibition (Example 10) @ 3 μM: −15%

## C=CCC(c1cc2cc(Oc3ccccc3)ccc2nc1N)C1CCCCC1 (centres unmarked) [compound 503]
β-secretase (BACE)
  % Inhibition (Example 10) @ 0.3 μM: 28%
  % Inhibition (Example 10) @ 1 μM: 19%
  % Inhibition (Example 10) @ 3 μM: 36%

## Cn1ccnc1CN(CC(C)(C)C)C(=O)CCC(c1cc2cc(Oc3ccccc3)ccc2nc1N)C1CCOCC1 (centres unmarked) [compound 55]
Human BACE-1
  inhibition at 1 µM: 83%
  IC50: 420 nM

## Nc1nc2ccc(Oc3ccccc3)cc2cc1C(CCC(=O)N[C@H]1CC[C@H](C(=O)O)CC1)C1CCCCC1 (some centres unmarked) [compound 22]
β-secretase (BACE)
  % Inhibition (Example 10) @ 0.3 μM: 0.6%
  % Inhibition (Example 10) @ 1 μM: −19%
  % Inhibition (Example 10) @ 3 μM: −3%

## Nc1nc2ccc(Oc3ccccc3)cc2cc1CCC(=O)NCC1CCCCC1 [compound 11]
β-secretase (BACE)
  % Inhibition (Example 10) @ 1 μM: 5%
  % Inhibition (Example 10) @ 3 μM: 81%

## CCCCNC(=O)CCc1cc2cc(Oc3ccccc3)ccc2nc1N [compound 12]
β-secretase (BACE)
  % Inhibition (Example 10) @ 0.3 μM: −2%
  % Inhibition (Example 10) @ 1 μM: 0.8%
  % Inhibition (Example 10) @ 3 μM: 19%

## COC(=O)[C@H]1CC[C@@H](NC(=O)CCC(c2cc3cc(Oc4ccccc4)ccc3nc2N)C2CCCCC2)CC1 (some centres unmarked) [compound 19]
β-secretase (BACE)
  % Inhibition (Example 10) @ 0.3 μM: −15%
  % Inhibition (Example 10) @ 3 μM: 24%

## CN(C(=O)CCCc1cc2cc(Oc3ccccc3)ccc2nc1N)C1CCCCC1 [compound 18]
β-secretase (BACE)
  % Inhibition (Example 10) @ 0.3 μM: 29%
  % Inhibition (Example 10) @ 1 μM: 26%
  % Inhibition (Example 10) @ 3 μM: 36%

## Nc1nc2ccc(Oc3ccccc3)cc2cc1C(CCC(=O)N[C@H]1CC[C@@H](C(=O)O)CC1)C1CCCCC1 (some centres unmarked) [compound 21]
β-secretase (BACE)
  % Inhibition (Example 10) @ 0.3 μM: 0.5%
  % Inhibition (Example 10) @ 1 μM: −1%
  % Inhibition (Example 10) @ 3 μM: 10%
